Entries after “also recorded” stand apart in the source; their conditions may differ.
Tests used:
[1] = system: Sil-15 cells containing a RARE driving a lacZ reporter; assay: X-Gal-based RA reporter assay (genomic response); format: cell-based; set-up: genomic response Emax (±95% CI): unit not given here; conditions: for genomic response Emax (±95% CI) / EC50: Sil-15 reporter cells; for genomic response Emax (±95% CI): absorbance at 650 nm; for genomic EC50 compared with ATRA / genomic E max compared with ATRA: nonoverlapping 95% CI; for EC50: read-out: genomic response EC50 (±95% CI), overnight, 10^–6 to 10^–14 M
From the text: Following chemical design and synthesis, the synthetic retinoid library was screened for genomic and nongenomic biological activities and compared to the response of the endogenous retinoid, ATRA. In these assays, the EC50 value represented the concentration of retinoid that gave half-maximal response (potency), while the E max value represented the maximum response achievable from the retinoid (efficacy).
The transcriptional genomic activity of the retinoids was quantified using Sil-15 cells containing a RARE driving a lacZ reporter. […] Twenty-two of the synthetic retinoids were effective in inducing genomic activity. […] In addition, the retinoids varied in their efficacies.
The Sil-15 cell line was used in the X-gal RA reporter assay described below. The cells were grown in Dulbecco’s modified Eagle’s medium (DMEM) containing 10% fetal bovine serum (FCS) (Invitrogen/Gibco), 0.6% penicillin-streptomycin (Gibco) and 0.8 mg/mL G418 sulfate (Sigma) for selection. They were maintained in a humidified atmosphere containing 5% CO2 at 37 °C. The medium was changed three times a week and the cells were passaged at 70% confluence using 0.05% trypsin-EDTA.
Sil-15 cells are F9 teratocarcinoma cells stably transfected with a plasmid containing the LacZ gene under the control of a DR5-type RA response element (RARE). The reporter cell line was used to detect the transcriptional genomic activity of ATRA and other retinoids by colorimetrically quantifying the insoluble blue product generated by β-galactosidase from X-gal during the assay. The assay was performed by plating 100,000 cells per well in the 0.1% gelatin-coated 96-well plates and leaving them to attach overnight. The ATRA/retinoids dilutions ranging from 10^–6 to 10^–14 M were incubated on the reporter cells overnight at 37 °C, in 5% CO2. A standard curve of ATRA was included in each experiment to ensure the reproducibility of the results between assays performed on different days. All the assays for ATRA as well as the retinoids were quantified in triplicate. Serial dilutions of retinoids were prepared from a stock solution under red/orange light. The stock solutions prepared in DMSO for each retinoid varied depending on the solubility of each compound. Each stock was stored at −20 °C and protected from light. The next day, Sil-15 cells were washed with PBS, fixed with 1% glutaraldehyde and 1 mM MgCl2 solution for 15 min, and developed in X-gal developing solution (0.2% X-Gal, 1 mM MgCl2, 3.3 mM potassium ferricyanide and 3.3 mM potassium ferrocyanide in PBS). The plates were read on an E max microplate reader (Molecular Devices) at 650 nm.
(§1) All data are presented as mean ± SEM of three independent experiments with biological triplicates. Statistical analyses were performed in Microsoft Office Excel 2019 or GraphPad Prism 7.0c version (Prism, GraphPad Software, San Diego, CA). Neurite outgrowth data were analyzed by one-way ANOVA with Newman-Keuls multiple comparison test as appropriate; P value <0.05 was considered statistically significant. *P < 0.05, **P < 0.01. Data for X-Gal and ERK1/2 phosphorylation were analyzed using sigmoidal dose–response analysis of log (agonist) versus response curve (stimulation).

[2] = system: ERK1/2 phosphorylation in SH-SY5Y cells; assay: ERK1/2 phosphorylation (nongenomic response), AlphaScreen SureFire; format: cell-based, human; set-up: nongenomic response Emax (±95% CI): unit not given here; conditions: for EC50: Homo sapiens, read-out: nongenomic response EC50 (±95% CI); for nongenomic E max compared with ATRA: nonoverlapping 95% CI
Description: After screening the retinoids for genomic responses, they were tested for their nongenomic ability to rapidly phosphorylate ERK1/2 in the SH-SY5Y cell line. ATRA is known as a potent activator of ERK1/2 − and was used as the standard for comparison. […] The efficacies of the remaining seven retinoids were similar to ATRA.
(§2) SH-SY5Y cell line as used in ERK phosphorylation and neurite outgrowth assays described below. The cells were grown in DMEM containing 10% FCS at 37 °C with 5% CO2. The medium was changed three times a week and the cells were passaged at 70% confluence using 0.05% trypsin-EDTA.
To quantify ERK1/2 phosphorylation, SH-SY5Y cells (100,000 cells/well) were plated onto 96-well plates and serum-starved for 24 h in DMEM. Cells were assayed in serum-free DMEM and stimulated for 60 min at 37 °C in a humidified atmosphere. Retinoids were tested at concentrations ranging from 10 to 4 to 10–11 M and at a final concentration of 0.1% DMSO. At the end of the assay, the medium was removed, and cells were lysed with lysis buffer supplied in the AlphaScreen SureFire ERK1/2 kit (PerkinElmer). The assay was performed in 384-well white Proxiplates according to the manufacturer’s instructions and using the beads supplied in the protein A general IgG detection kit (PerkinElmer). Briefly, 4 μL samples were incubated with 7 μL of the freshly prepared mixture containing donor and acceptor beads. Plates were incubated at room temperature and read with the Envision system (PerkinElmer Life Sciences) using AlphaScreen settings.
as §1

[3] = system: SH-SY5Y cells; assay: Neurite outgrowth; format: cell-based, human; conditions: 5 days; for induction of neurite outgrowth compared with ATRA: 10 nM; for fold induction at 0.01 µM: Homo sapiens, SH-SY5Y, 120 h, read-out: fold increase in neurite outgrowth
Description: Following the characterization of retinoids for their genomic and nongenomic activities, the ability of retinoids to differentiate and induce neurite outgrowth in the neuroblastoma cell line, SH-SY5Y cells, was examined (Figure ). Neurite outgrowth can be induced in this cell line by ATRA at 10 μM.
as §2
SH-SY5Y cells were plated at 10,000 cells/well in 12-well plates containing 16 mm acid-treated/poly L-lysine-coated glass coverslips. After 24 h, retinoids were added to the medium and tested at two different concentrations, 10 μM and 10 nM, with a final DMSO concentration of 0.01 or 0.0001%, respectively. The plates were incubated for 5 days at 5% CO2/37 °C. All retinoid concentrations were tested in triplicate. Cells were fixed using 4% paraformaldehyde and stained for β-III tubulin (1:1000; Sigma). For each neurite outgrowth experiment, 3 coverslips (in 3 wells) were used. ImageJ software with the NeuronJ plugin was used to quantify neurite outgrowth on stained cells in each of the 10 randomly selected images of each coverslip taken using a Nikon Eclipse E400 fluorescence microscope. The average neurite length was calculated for each image by dividing total neurite length by the total number of neurites per image.
as §1

[4] = 10 nM compound, in comparison to nontreated cells

Row | SMILES | EC50 [1] | EC50 ([2]; SH-SY5Y cells, 1 h) | nongenomic response EC50 (±95% CI) ([2]; SH-SY5Y cells, 1 h) | genomic response Emax (±95% CI) [1] | genomic EC50 compared with ATRA [1] | nongenomic response Emax (±95% CI) ([2]; SH-SY5Y cells, 1 h) | nongenomic E max compared with ATRA [2] | induction of neurite outgrowth compared with ATRA [3] | fold increase in neurite outgrowth [3, 4] | induction of ERK1/2 phosphorylation (nongenomic activity) ([2]; SH-SY5Y cells, 1 h) | fold induction at 0.01 µM [3, 4] | genomic E max compared with ATRA [1]
1 | CC1(C)CCC(C)(C)c2cc(C#Cc3cnc(C(=O)O)cn3)ccc21 [Compound 25, 5-[2-(5,5,8,8-Tetramethyl-5,6,7,8-tetrahydronaphthalen-2-yl)ethynyl]pyrazine-2-carboxylic Acid] | 3.98 nM | 20.7 nM |  | 174 (±8.25) | significantly higher EC50 values than ATRA | 27.9 (±1.66) | E max values significantly lower than ATRA | induced neurite outgrowth but not significantly compared to ATRA |  |  |  | 
2 | COc1cc2c(cc1C#Cc1ncc(C(=O)O)cn1)C(C)(C)CCC2(C)C [Compound 29, 2-[2-(3-Methoxy-5,5,8,8-tetramethyl-5,6,7,8-tetrahydronaphthalen-2-yl)ethynyl]pyrimidine-5-carboxylic Acid] | 603 nM | 87.4 nM |  | 266 (±110) | significantly higher EC50 values than ATRA | 37.5 (±2.12) | E max values significantly lower than ATRA | induced neurite outgrowth but not significantly compared to ATRA |  |  |  | 
3 | CC1(C)CCC(C)(C)c2nc(C#Cc3ccc(C(=O)O)cc3)cnc21 [Compound 30, 4-[2-(5,5,8,8-Tetramethyl-5,6,7,8-tetrahydroquinoxalin-2-yl)ethynyl]benzoic Acid] |  | 8.54 nM |  |  | significantly lower EC50 than ATRA | 91.6 (±3.21) | E max values significantly higher than ATRA | significantly induced neurite outgrowth compared to ATRA; also recorded: even higher activity compared to EC23 and GZ25 |  | showed activity toward the nongenomic pathway | 2.3 | 
4 | CC1(C)CCC(C)(C)c2nc(C#Cc3ccc(C(=O)O)cc3F)cnc21 [Compound 31, 3-Fluoro-4-[2-(5,5,8,8-tetramethyl-5,6,7,8-tetrahydroquinoxalin-2-yl)ethynyl]benzoic Acid] | 0.382 nM | 58.4 nM |  |  | significantly lower EC50 than ATRA | 91.6 (±3.84) | E max values significantly higher than ATRA | induced neurite outgrowth but not significantly compared to ATRA |  |  |  | 

The next lines start with results.

Row | EC50 [1] | EC50 ([2]; SH-SY5Y cells, 1 h) | nongenomic response EC50 (±95% CI) ([2]; SH-SY5Y cells, 1 h) | SMILES | genomic response Emax (±95% CI) [1] | genomic EC50 compared with ATRA [1] | nongenomic response Emax (±95% CI) ([2]; SH-SY5Y cells, 1 h) | nongenomic E max compared with ATRA [2] | induction of neurite outgrowth compared with ATRA [3] | fold increase in neurite outgrowth [3, 4] | induction of ERK1/2 phosphorylation (nongenomic activity) ([2]; SH-SY5Y cells, 1 h) | fold induction at 0.01 µM [3, 4] | genomic E max compared with ATRA [1]
5 | 0.427 nM | 459 nM |  | Cc1cc2c(cc1C#Cc1ccc(C(=O)O)cn1)C(C)(C)CCC2(C)C [Compound 26, 6-[2-(3,5,5,8,8-Pentamethyl-5,6,7,8-tetrahydronaphthalen-2-yl)ethynyl]pyridine-3-carboxylic Acid] | 177 (±6.65) | significantly lower EC50 than ATRA | 56.4 (±6.36) | E max values significantly higher than ATRA | unable to induce neurite outgrowth | no response |  |  | 
6 | 3.16 nM |  | no response | COc1cc2c(cc1C#Cc1ccc(C(=O)O)cn1)C(C)(C)CCC2(C)C [Compound 27, 6-[2-(3-Methoxy-5,5,8,8-tetramethyl-5,6,7,8-tetrahydronaphthalen-2-yl)ethynyl]pyridine-3-carboxylic Acid] | 176 (±8.55) | significantly higher EC50 values than ATRA | no response |  |  |  | lacked nongenomic activity | 1.7 | 
7 | 0.826 nM | 5.42 nM |  | Cc1cc2c(cc1C#Cc1ncc(C(=O)O)cn1)C(C)(C)CCC2(C)C [Compound 28, 2-[2-(3,5,5,8,8-Pentamethyl-5,6,7,8-tetrahydronaphthalen-2-yl)ethynyl]pyrimidine-5-carboxylic Acid] | 192 (±12.7) |  | 44.7 (±3.15) |  | induced neurite outgrowth but not significantly compared to ATRA |  |  |  | 
8 | 0.00232 nM | 0.0532 nM |  | Cc1sc(-c2ccc(C(=O)O)cc2)nc1-c1cnc2c(n1)C(C)(C)CCC2(C)C [Compound 40, 4-[5-Methyl-4-(5,5,8,8-tetramethyl-5,6,7,8-tetrahydroquinoxalin-2-yl)-1,3-thiazol-2-yl]benzoic Acid] | 181 (±7.45) | significantly lower EC50 than ATRA | 40.7 (±1.02) | E max values significantly lower than ATRA |  |  |  | 1.9 | significantly higher E max than ATRA
9 | 16.9 nM | 15.4 nM |  | Cc1sc(-c2ccc(C(=O)O)cn2)nc1-c1cnc2c(n1)C(C)(C)CCC2(C)C [Compound 41, 6-[5-Methyl-4-(5,5,8,8-tetramethyl-5,6,7,8-tetrahydroquinoxalin-2-yl)-1,3-thiazol-2-yl]pyridine-3-carboxylic Acid] | 144 (±16.5) | significantly higher EC50 values than ATRA | 55.26 (±0.00) | E max values significantly higher than ATRA |  |  |  | 1.7 | significantly lower E max than ATRA

Reference: publication PMC12163635, “Synthetic Retinoids for the Modulation of Genomic and Nongenomic Processes in Neurodegenerative Diseases” (ACS Omega, 2025)
